We go through two molecules from patent publication US20240358837A1, “Amorphous Photosensitizing Particles, Methods For The Preparation Thereof, And Methods For The Use Thereof” (priority 2021, published 2024).

In one data set the test system is blood-brain barrier. In words: Photodynamic opening of the blood-brain barrier (Evans blue) in rats. Conditions: low-dose PDT, 80 J/cm^2, 85 mW/cm^2. The class given is in vivo, rat. Here is the method: Sprague-Dawley rats (4-5 weeks old, Envigo) received an intravenous injection of NanoVP (0.25 or 0.5 mg/kg) or 5-aminolevulinic acid (5-ALA, 20 or 125 mg/kg) at 30 min or 4 hours before PDT. PDT parameters, including photosensitizer concentration, drug-light interval, irradiance, and radiant exposure, were selected. At 30 minutes post-photosensitizer injection, rats were anesthetized with isoflurane and secured within a stereotaxic frame.
During the 30-minute drug-light interval, a craniotomy was performed. The top of the rat head was shaved, and the skin was removed. The periosteum was retracted to the edges of the skull. Using a micro drill (OmniDrill35, WPI), a circle about 4 mm in diameter was sketched into the right parietal bone. Drilling was stopped periodically, and PBS was applied to prevent heating. […]
PDT was performed by light activation of the exposed brain (NanoVP: 690 nm, 80 or 100 J/cm^2; 5-ALA: 635 nm, 60 or 80 J/cm^2; 40 or 85 mW/cm^2; ML6600, Modulight). At 90 minutes post-PDT, rats received an intravenous injection of Evans blue dye (2%, 4 mL/kg) to determine the blood-brain barrier integrity using imaging and extraction methods In particular, Evans blue was quantified. […] Samples were centrifuged to pellet the tissue, and the optical density of Evans blue within the supernatant at 610 nm was measured on a multi-mode microplate reader. […]

The conditions of data set [1]: non-tumor-bearing animals, 125 mg/kg 5-ALA and 54 J, within 5 days of treatment; cited from earlier work.
Data set [2] can be described thus: Fluorescence self-quenching (fluorescence in DMSO divided by fluorescence in PBS). The class given is physicochemical. Conditions: 0.625-5 μM. Here is the method: The stability of NanoVP particles in PBS at 4° C. was determined by monitoring their hydrodynamic size and polydispersity index using a particle sizer analyzer for up to one year. NanoVP singlet oxygen (^1O2) generation, self-quenching, and drug release were studied in 96-well plates as described previously. NanoVP and singlet oxygen sensor green (SOSG) at 5 μM were mixed and irradiated with 690 nm light (10 J/cm^2, 10 mW/cm^2; ML6600, Modulight). A multi-mode microplate reader (Synergy Neo2, BioTek) acquired fluorescence signals of VP (Excitation/Emission: 435/650-750 nm) or SOSG (Excitation/Emission: 504/525 nm) before and after light irradiation. Self-quenching (FDSMO/FO) is defined as the fluorescence after disruption of the NanoVP using DMSO (FDSMO) divided by the fluorescence of the NanoVP in PBS (FO). Photosensitizer release from NanoVP (de-quenching) was studied by monitoring the gain in VP fluorescence signal in PBS/DMSO buffer (0-100% v/v) at room temperature or in Eagle's Minimum Essential Medium (EMEM, Cellgro) with 0-10% v/v fetal bovine serum (FBS, Gibco) at 37° C.
Fluorescence photoactivity was defined as the maximal fluorescence intensity (FL) of NC-VP and L-VP in PBS divided by the maximal fluorescence intensity (FL) of NC-VP and L-VP in DMSO. The absorbance spectrums of the constructs over the visible spectrum were determined in PBS and DMSO. […]

A further data set concerns U87 cells. In words: PDT cell viability (MTT assay) in U87 cells. The class given is cell-based, human. The following applies: MTT 24 hours after PDT, 0-5 J/cm^2, 10 mW/cm^2. Here is the method: Cells were cultured overnight in a 35-mm Petri dish or 96-well black wall plates (1-3.3×10^4 cells/cm^2) and then incubated with photosensitizers (i.e., NanoVP, free-form VP, or Liposomal VP; 0.25 μM) for 24 hours. Subsequently, cells were washed twice with PBS and incubated with a photosensitizer free complete medium. Photosensitizer uptake in cells was determined using extraction methods followed by VP fluorescence measurements (Excitation/Emission: 435/700±10 nm, Synergy Neo2, BioTek) or visualized using fluorescence imaging (Lionheart, BioTek) as described previously. PDT was performed by exposing the cells to 690 nm light (0-10 J/cm^2, […], bottom illumination; ML6600, Modulight).
(§1) At 24 hours after PDT, cell viability was determined using MTT [3-(4,5-dimethylthiazol-2-yl)-2,5-diphenyltetrazolium bromide] assay or neutral red assay (Abcam) following the vendor's protocol. For dark toxicity evaluation, cells were incubated with media containing photosensitizers (0-40 μM) for 72 hours, followed by the MTT assay. The photosensitizer efflux by ATP binding cassette (ABC) transporters was studied in MCF-7 and its multi-drug resistant sublines (MCF-7 TX400 and MCF-7 MX100) by adapting the protocols described herein.
In general terms: Formazan colour is commonly taken as a measure of viable cells.

The test system of a further data set is caspase 3 in U87 cells. In words: Total and cleaved caspase 3 immunoblotting after PDT. The class given is cell-based, human. The following applies: one-hour post light activation. The protocol: Expressions of total and cleaved caspase 3 were examined by immunoblotting techniques. U87 cells were plated in a 35-mm Petri dish (Falcon) at a density of 2.2×10^4 cells/cm^2. Cells were incubated with 0.25 μM of NanoVP, free-form VP, or Liposomal VP for 24 hours. Cells were washed twice with PBS and irradiated with 690-nm light (10 J/cm^2, 50 mW/cm^2) in a fresh culture medium. At 1 hour after PDT, cell lysates were collected in radioimmunoprecipitation assay (RIPA) buffer supplemented with a 1% protease inhibitor. Protein lysates (22 μg) were separated on a 4-12% precast Bis-Tris gel (NuPAGE) and transferred onto a nitrocellulose membrane. After blocking with Odyssey blocking buffer (Li-COR) for 1 hour, blots were incubated with primary antibody against beta-actin (#3700, cell signaling), caspase 3 (#9662, Cell Signaling,), or cleaved caspase 3 (#9661, Cell Signaling) overnight at 4° C. Blots were washed with 1X Tris-buffered Saline, 0.1% Tween® 20 Detergent (TBST) buffer followed by incubation with IRDye 680RD goat anti-mouse secondary antibody (926-68070, Li-COR) or IRDye 800CW goat anti-rabbit secondary antibody (926-32211, Li-COR) for 1 hour at room temperature based on the supplier's advice. Visualization of protein bands was developed using the LiCor ODYSSEY CLx (Li-COR). β-actin serviced as a loading control. Band intensity was determined using LiCOR ODYSSEY CLx software. PDT-treated samples were normalized to a no-treatment control.
(In western blotting, separated proteins are transferred to a membrane and probed.)

The subject of a further data set is U87 cancer cells. In words: Lysosomal damage (neutral red uptake assay) after PDT. It is filed as cell-based, human. The following applies: 690 nm, 1 J/cm^2, 50 mW/cm^2; 0.25 μM. Here is the method:
as §1

In general, mortality refers to the percentage killed. As to `NCC(=O)CCC(=O)O` [5-ALA, 5-aminolevulinic acid], the “depth at which extravasated Evan Blue is visible in rat brain” value in the data set on blood-brain barrier was “up to 1 mm”. The mortality in data set [1] is recorded as 50%.
Turning to verteporfin [free-form VP], in data set [2], the fluorescence self-quenching result is given as “up to 78 fold”. For the same molecule, the “half maximal inhibition concentration (IC50) of PDT” value in the data set on U87 cells is given as 0.20 μM×J/cm^2. In the data set on caspase 3 in U87 cells, the “cleaved-to-total caspase-3 ratio” value was approximately 4.4 and the “reduction of total (pro) caspase-3 expression” value is recorded as approximately 50%. For the same molecule, in the data set on caspase 3 in U87 cells (10 J/cm^2, 50 mW/cm^2), the “increase in cleaved caspase-3 formation” value is approximately 2.4 fold. In addition, the lysosomal integrity entry in the data set on U87 cancer cells was “does not affect lysosomal integrity”.
